Assay results reported in patent publication US8580776B2, “Compositions and methods for treating neurodegenerating diseases” (The Board of Trustees of the University of Illinois, priority 2007, dated 2013).

How the values were obtained:
[1] = test system: insulin degrading enzyme (IDE); assay: QPCR of insulin degrading enzyme mRNA in brain samples; assay type: in vivo, mice; conditions: cortical samples, versus vehicle
Protocol: (§1) Total cytoplasmic RNA from tissues was isolated using TRIZOL reagent, (Invitrogen/GIBCO); aliquots were converted to cDNA using random hexamer primers, and mRNA levels were estimated by quantitative touchdown PCR (QPCR). PCR conditions were 35 cycles of denaturation at 94° C. for 10 s; annealing at 58-64° C. for 15 s; and extension at 72° C. for 20 s on a Corbett Rotorgene Real-Time PCR unit (Corbett, Australia). PCR was done using Taq DNA Polymerase (Invitrogen), and contained SYBR Green (SybrGreen1 10,000× concentrate, diluted 1:10,000; Molecular Probes, Eugene, Oreg.). Relative mRNA concentrations were calculated from the takeoff point of reactions using manufacturer's software, and were normalized to α-tubulin, β-actin, and glyceraldehyde-3-phosphate dehydrogenase (GDH). Melting curve analysis and agarose gel electrophoresis ensured production of single and corrected size products. The primers used were: […]
Comparative real time RT-PCR (or quantitative PCR, QPCR) was used to measure mRNA levels of the Aβ degrading enzymes neprilysin (Nep) and insulin degrading enzyme (IDE) in brain samples from vehicle and DSP4 treated mice (FIG. 4A). […] To assess the effects of dose, mouse neuronal N2A cells were incubated with increasing does of NA for 24 hr after which NEP activity was measured (FIG. 4D, data is mean±sd and is from n=3 samples). […]

EAE mice = assay: NA depletion with DSP4 in EAE (MOG35-55 immunized mice); assay type: in vivo; conditions: DSP4 50 mg/kg i.p. twice one week apart, MOG immunization 2 weeks later; versus vehicle
APP = assay: Western blot of APP holo-protein and C-terminal fragments in brain extracts; assay type: in vivo, mice; conditions: cortical lysates, versus vehicle
Protocol: (§2) Brain tissue was homogenized in 8M urea. Total protein concentration was determined using the Bradford assay and BSA as standard. Proteins were separated on 8 or 15% SDS page gels, transferred to PVDF membrane and incubated with antibodies: anti-APP^645-694 G369 (1:4000), anti α-tubulin (T-9026, Sigma) (1:5000). Signals were detected using the ECL Kit (Amersham), band intensities calculated using Image J software (ImageJ 1.31V), and normalized to α-tubulin values.

NOS2 = NOS2 and NeuN staining in wild type mice treated with DSP4 and injected with Aβ1-42; assay type: in vivo; conditions: Aβ1-42 injected
Protocol: Genotyping was performed to confirm identity of NOS2 null and wild type littermates (FIG. 7A), and wild type mice treated with DSP4, and wild type mice treated with DSP4 and injected with oligomeric Aβ1-42 (FIG. 7B). One day later brain sections were analyzed for NOS2 (green) and NeuN (red) staining White arrows indicate neurons labeled with both antibodies.
Wild type and NOS2 null mice were treated with two i.p. injections of DSP4 as described below, and injected with oligomeric Aβ1-42 4 weeks after the second DSP4 injection. One day later brain sections were prepared from the mice, sections from wild type (FIG. 8A) and NOS2 null mice (FIG. 8B) were stained for SMI-32.
Slides were washed for 5 min. with PBS and blocked with 5% normal donkey serum in PBS at room temperature for 30 min. Primary antibodies were diluted in 1% normal donkey serum in PBS. […] Images were obtained on a Zeiss Axioplan2 fluorescence microscope equipped with an Axiocam MRm digital camera and Axiovision 4.2 imaging software.
Quantitative analysis of NOS2 positively staining cells was performed as described above. In brief, NOS2 positive containing neurons having large cell bodies were counted in 5 sections having a defined distance (0, 200 and 400 μm rostral and caudal) relative to the level of cortical injection, in brain sections from at least 3 or 4 animals per group. […]

BACE1, PSEN1, Adam10 = assay: Western blot and PCR analysis of APP processing enzymes in 9 month-old mice; assay type: in vivo; conditions: data not shown
Protocol: as §2, §1

CCN(CCCl)Cc1ccccc1Br [DSP4, N-(2-chloroethyl)-N-ethyl-2-bromobenzylamine]
levels of insulin degrading enzyme (IDE) mRNA [1]: small, non-significant reductions
clinical signs of EAE (EAE mice): appeared sooner and were more severe
levels of holoAPP (APP): no effect
NOS2 expression in neurons (NOS2): increases NOS2 expression in neurons
BACE1, PSEN1, Adam10 mRNA, BACE1 protein, human APP mRNA levels (BACE1, PSEN1, Adam10): did not reveal any significant changes
